Experimental data reported in patent US20220373536A1, “HIGH-CONTENT ANALYSIS METHOD” (priority 2019, published 2022).

System: plasma cells (target cells, CD138+; U-266 or NCI-H929)
Test: ICNP-based ADCC assay in microwells, NK cells against plasma cells / U-266 cells under anti-CD38 stimulation, time-lapse PI readout
Assay type: cell-based
Source text: EDTA bone marrow samples were collected from 13 patients with multiple myeloma (MM, 7 de novo and 6 relapses). 8 primary samples were processed through density centrifugation (Ficoll-Pacque; Merck) in order to obtain mononuclear cells while preserving the original composition of the effector (E) and target (T) cells, i.e., NK and plasma cells, respectively. 5 samples were processed with CD138 Antibody coupled to magnetic beads (Miltenyi Biotec) to obtain a population of white blood cells (WBC), a population which comprises NK cells and is depleted of plasma cells.
The resulting cells were co-cultured with U-266 or NCI-H929 cell lines as target cells. […]
The cells from primary or co-culture samples were seeded in 96-well plates, with a final concentration of 2×10^5 cells/well, with variable E:T ratios. […] Each experiment was analyzed by time lapse in fluorescence microscopy for up to 12 hours.
The images for said plurality of microwells are then acquired and, with a detection algorithm, the areas of interest, where each area of interest corresponds to a single cell, for each of said areas of interest, properties which comprise localization, the intensity of certain markers in each fluorescence channel, the cell area, the position of the center of gravity and the morphology are then measured. […]

## Daratumumab
10 μg/mL, 1,200 microwells, plasma cells in contact with NK cells, decreases as distance increases, FIG. 11E
  plasma cell death with respect to plasma cell - NK cell distance: maximum
10 μg/mL, pattern 2 microwells (only plasma cells, no NK)
  death rate of the plasma cells belonging to pattern 2 (spontaneous death or direct effect of the antibody): 10.86%
